Data set [1] is described as follows: Cellular permeability measurements, bidirectional Caco-2 assay. Conditions: human, Caco-2, pH 7.4. In general terms: Caco-2 monolayers are a common model of the intestinal barrier.
Data set [2] concerns Human STING (hSTING, residues 155-341). In words: Interaction with hSTING as determined by Differential Scanning Fluorimetry (DSF). The class given is binding. The note with it: 100 μM test compounds, 5 μM target protein. The method in brief: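 Thermal shift of hSTING (residues 155-341, 5 μM) with test compounds at 100 μM in 20 mM Tris, 150 mM NaCl, pH 7.5, using 5× SYPRO Orange. Ramped 25 to 95 °C at 0.5 °C per cycle (15 s/cycle) by real-time PCR fluorescence. Tm from duplicate melting curves, averaged.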

For data set [3], the target named is T1, STING HAQ-variant (Homo sapiens, UniProt Q86WV6, G230A/H232R/R293Q/R71H).
T1 construct: parental THP1-Blue™ ISG cell lines (which express endogenously HAQ); host or cells: THP1-Blue ISG (parental, endogenous HAQ) or STING-KO clone re-transduced with HAQ (MSCV-ires-GFP-Blasti)
T1 sequence (Q86WV6 whole entry R71H/G230A/H232R/R293Q): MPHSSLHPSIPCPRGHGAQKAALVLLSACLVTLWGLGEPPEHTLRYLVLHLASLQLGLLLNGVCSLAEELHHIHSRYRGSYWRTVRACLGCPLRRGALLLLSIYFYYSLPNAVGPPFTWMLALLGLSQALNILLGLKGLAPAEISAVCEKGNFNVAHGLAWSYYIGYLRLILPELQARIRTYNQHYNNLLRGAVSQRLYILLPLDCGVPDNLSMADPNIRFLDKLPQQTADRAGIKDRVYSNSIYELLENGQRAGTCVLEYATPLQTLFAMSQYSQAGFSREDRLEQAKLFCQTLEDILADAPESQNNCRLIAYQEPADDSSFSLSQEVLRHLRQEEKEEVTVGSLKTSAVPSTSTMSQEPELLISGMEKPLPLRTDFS
In words: IRF-inducible SEAP reporter assay in THP1-Blue ISG cells, STING HAQ-variant. The class given is cell-based. Conditions: STING HAQ-variant (parental or re-introduced), 24 hours incubation. The method in brief: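 THP1-Blue ISG cells expressing STING HAQ, either endogenously (parental) or re-introduced after CRISPR knockout, were seeded at 10000 cells/well. They received 8-point compound dilutions (0.5% DMSO final) for 24 hours at 37° C. IRF-driven SEAP was read with Quanti-Blue at OD 620 nm after 30 minutes, and EC50 came from four-parameter fits.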
In general terms: A reporter such as luciferase makes a cellular process visible.

Data set [4] has as its target T2, STING AQ-variant (Homo sapiens, UniProt Q86WV6, G230A/H232R/R293Q).
T2 construct: expressed in transfected cells; host or cells: THP1-Blue ISG hSTING KO clone, retroviral MSCV-ires-GFP-Blasti
In words: IRF-inducible SEAP reporter assay in THP1-Blue ISG cells, STING AQ-variant. Conditions: 24 hours incubation. The class given is cell-based. In short, it runs like this:
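THP1-Blue ISG cells with endogenous STING knocked out by CRISPR and re-expressing the human STING AQ variant; compounds in 8-point dilution, final DMSO 0.5%, 24 h at 37 °C. SEAP read after 30 min with Quanti-Blue as OD 620 nm; EC50 and Hill slope from four-parameter fits.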

For data set [5], the target named is T3, STING R293Q-variant (Homo sapiens, UniProt Q86WV6, H232R/R293Q).
T3 construct: expressed in transfected cells; host or cells: THP1-Blue ISG hSTING KO clone, retroviral MSCV-ires-GFP-Blasti
T3 sequence (Q86WV6 whole entry H232R/R293Q): as the sequence (Q86WV6 whole entry R71H/G230A/H232R/R293Q) above, with H71R, A230G counted along it
In words: IRF-inducible SEAP reporter assay in THP1-Blue ISG cells, STING R293Q-variant. Conditions: 24 hours incubation. The class given is cell-based. In short, it runs like this: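 THP1-Blue ISG cells with endogenous STING knocked out (CRISPR) and retrovirally re-expressing human STING R293Q; 10000 cells/well, compound 24 h at 37 °C, 0.5% DMSO final. SEAP read by Quanti-Blue (30 min, OD 620 nm); EC50 and Hill slope from 8-point four-parameter fit.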

Data set [6] can be described thus: in vitro. Conditions: human, Caco-2, pH 7.4.
Data set [7] can be described thus: Solubility measurements (HTS) at pH 6.8. The data set is classed as physicochemical. Conditions: kinetic from dmso stock; aqueous McIlvaine buffer pH 6.8, 24 h at room temperature, from 10 mM DMSO stock; read-out: Soblubility. The procedure: Aqueous solubilities were determined from 10 mM stock solutions of the compounds in DMSO diluted to a final concentration of 250 μM with aqueous McIlvaine buffer at pH 6.8, or with acetonitrile/water (1:1) as a reference. Samples were shaken for 24 h at room temperature in 96-well plates (Whatman Uniplate® 96 wells, 750 μL, polypropylene, round bottom). The plate was then centrifuged at 3,000 rpm for 2 min. 250 μL of each sample were transferred to a Millipore MultiScreenHTS filter plate with a polycarbonate membrane, pore size 0.45 μm. Filtrates were collected by centrifugation at 3,000 rpm for 2 min. The dissolved concentrations were determined by UPLC/UV (Ultra-Performance Liquid Chromatography/ultraviolet) on a Waters ACQUITY UPLC® SQD system equipped with a Waters ACQUITY UPLC® BEH 2.1×50 mm C18 column, particle size 1.7 μm, using a short gradient with water/0.1% formic acid as solvent A and acetonitrile/0.1% formic acid as solvent B (5 to 95% B with 1.7 min total cycle time). Compounds signals were measured with a photodiode array UV detector operated at 254 nm. Solubilities were determined with a one point calibration by comparing peak areas relative to the reference standard using Waters Empower software.

For data set [8], the target named is T4, STING R232H-variant (Homo sapiens, UniProt Q86WV6).
T4 construct: expressed in transfected cells; host or cells: THP1-Blue ISG hSTING KO clone, retroviral MSCV-ires-GFP-Blasti
T4 sequence (Q86WV6 whole entry, stated change not applied): as the sequence (Q86WV6 whole entry R71H/G230A/H232R/R293Q) above, with H71R, A230G, R232H, Q293R counted along it
In words: IRF-inducible SEAP reporter assay in THP1-Blue ISG cells, STING R232H-variant. Conditions: 24 hours incubation. The class given is cell-based. In short, it runs like this: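 THP1-Blue ISG cells, endogenous STING knocked out by CRISPR and re-expressing hSTING R232H, with IRF-inducible SEAP reporter. Treated 24 h at 37 °C with 8-point compound dilutions (0.5% DMSO final); SEAP read by Quanti-Blue OD 620 nm after 30 min. EC50 from four-parameter fit.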

Data set [9] deals with T5, STING H232R-variant (Homo sapiens, UniProt Q86WV6, H232R).
T5 construct: expressed in transfected cells; host or cells: THP1-Blue ISG hSTING KO clone, retroviral MSCV-ires-GFP-Blasti
T5 sequence (Q86WV6 whole entry H232R): as the sequence (Q86WV6 whole entry R71H/G230A/H232R/R293Q) above, with H71R, A230G, Q293R counted along it
In words: IRF-inducible SEAP reporter assay in THP1-Blue ISG cells, STING H232R-variant. The class given is cell-based. Conditions: STING H232R-variant (WT), 24 hours incubation. In short, it runs like this:
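THP1-Blue ISG cells with endogenous STING deleted by CRISPR and retrovirally re-expressing human STING H232R; 8-point compound dilutions, 0.5% DMSO final, 24 h at 37 °C. SEAP read by Quanti-Blue, 30 min, OD 620 nm; EC50 and Hill slope from four-parameter fit.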

Values after ≈ are worked out from the molar mass of the structure shown.

T2 sequence (Q86WV6 whole entry G230A/H232R/R293Q): as the sequence (Q86WV6 whole entry R71H/G230A/H232R/R293Q) above, with H71R counted along it

Broadly, the efflux ratio is a quotient of directional permeabilities that is used to spot active efflux. The term EC50 denotes the concentration at which the effect is half-maximal. With `Cc1cccc2c(-c3cccc4nn(C)cc34)nn(-c3ccc(N4CC5(COC5)C4)nc3)c12` [compound 3, 2′,7-dimethyl-1-(6-{2-oxa-6-azaspiro[3.3]heptan-6-yl}pyridin-3-yl)-1H,2′H-3,4′-biindazole], the efflux ratio at 10 μM in data set [1] was 0.6. Also, in data set [2], the “thermal shift (ΔTm)” value came out at 20 K. In addition, in data set [3], the EC50 is 3000 nM.

One may read the Papp A→B as how fast a substance crosses the layer from the apical side. `Cn1cc2c(-c3nn(-c4ccc(N5CCC(C(=O)O)CC5)nc4)c4c(C(F)(F)F)cccc34)cccc2n1` [Example #67, 1-{5-[2′-methyl-7-(trifluo-romethyl)-1H,2′H-[3,4′-biindazol]-1-yl]pyridin-2-yl}piperidine-4-carboxylic acid]: the concentration giving a half-maximal response (EC50) was found to be 2300 nM in data set [4]; 2100 nM in data set [5]; 2200 nM in data set [3]; 800 nM in data set [8]; 700 nM in data set [9]. Besides, the apical-to-basolateral permeability (Papp A→B) at 10 μM in data set [6] is 16 ×10⁻⁶ cm/s. For the same compound, the efflux ratio at 10 μM in data set [6] came out at 1.2. The solubility kinetic at 24 h in [7] turned out to be 82 µg/mL (≈ 158 µM). In [2], the “thermal shift (ΔTm)” value came to 23 K.

These data come from patent US12065427B2, “Heterocyclic compounds capable of activating STING” (BOEHRINGER INGELHEIM INTERNATIONAL GMBH, priority 2021, dated 2024).
